Test results as given in patent US11566022B2, “3-(5-methoxy-1-oxoisoindolin-2-yl)piperidine-2,6-dione derivatives and uses thereof” (NOVARTIS AG, priority 2019, dated 2023).
Where two headings read alike, the source gives them in different places.

Molecular target: HiBit-WIZ fusion protein (Homo sapiens, UniProt O95785+Q96SW2)
Assay: Quantification of WIZ protein levels in HiBit tag fusion protein assay (WIZ HiBit assay in 293T cells)
Format: cell-based
Set-up: Dmax: dose or concentration left out as unconfirmed
[1] = HEK-293T, 100 minus Amax; 293T cells; read-out: % degradation of WIZ (100-Amax)
[2] = HEK-293T, DMSO-normalized, curve-fitted percentage of WIZ-HiBit remaining at 25 uM; 293T cells; read-out: WIZ Amax
[3] = WIZ HiBit assay in 293T cells; 10-point, 5-fold dose response, highest concentration 25 μM, about 18 hours; read-out: WIZ AC50

Sequence of HiBit-WIZ fusion protein (O95785 whole entry, the tested form may be a part): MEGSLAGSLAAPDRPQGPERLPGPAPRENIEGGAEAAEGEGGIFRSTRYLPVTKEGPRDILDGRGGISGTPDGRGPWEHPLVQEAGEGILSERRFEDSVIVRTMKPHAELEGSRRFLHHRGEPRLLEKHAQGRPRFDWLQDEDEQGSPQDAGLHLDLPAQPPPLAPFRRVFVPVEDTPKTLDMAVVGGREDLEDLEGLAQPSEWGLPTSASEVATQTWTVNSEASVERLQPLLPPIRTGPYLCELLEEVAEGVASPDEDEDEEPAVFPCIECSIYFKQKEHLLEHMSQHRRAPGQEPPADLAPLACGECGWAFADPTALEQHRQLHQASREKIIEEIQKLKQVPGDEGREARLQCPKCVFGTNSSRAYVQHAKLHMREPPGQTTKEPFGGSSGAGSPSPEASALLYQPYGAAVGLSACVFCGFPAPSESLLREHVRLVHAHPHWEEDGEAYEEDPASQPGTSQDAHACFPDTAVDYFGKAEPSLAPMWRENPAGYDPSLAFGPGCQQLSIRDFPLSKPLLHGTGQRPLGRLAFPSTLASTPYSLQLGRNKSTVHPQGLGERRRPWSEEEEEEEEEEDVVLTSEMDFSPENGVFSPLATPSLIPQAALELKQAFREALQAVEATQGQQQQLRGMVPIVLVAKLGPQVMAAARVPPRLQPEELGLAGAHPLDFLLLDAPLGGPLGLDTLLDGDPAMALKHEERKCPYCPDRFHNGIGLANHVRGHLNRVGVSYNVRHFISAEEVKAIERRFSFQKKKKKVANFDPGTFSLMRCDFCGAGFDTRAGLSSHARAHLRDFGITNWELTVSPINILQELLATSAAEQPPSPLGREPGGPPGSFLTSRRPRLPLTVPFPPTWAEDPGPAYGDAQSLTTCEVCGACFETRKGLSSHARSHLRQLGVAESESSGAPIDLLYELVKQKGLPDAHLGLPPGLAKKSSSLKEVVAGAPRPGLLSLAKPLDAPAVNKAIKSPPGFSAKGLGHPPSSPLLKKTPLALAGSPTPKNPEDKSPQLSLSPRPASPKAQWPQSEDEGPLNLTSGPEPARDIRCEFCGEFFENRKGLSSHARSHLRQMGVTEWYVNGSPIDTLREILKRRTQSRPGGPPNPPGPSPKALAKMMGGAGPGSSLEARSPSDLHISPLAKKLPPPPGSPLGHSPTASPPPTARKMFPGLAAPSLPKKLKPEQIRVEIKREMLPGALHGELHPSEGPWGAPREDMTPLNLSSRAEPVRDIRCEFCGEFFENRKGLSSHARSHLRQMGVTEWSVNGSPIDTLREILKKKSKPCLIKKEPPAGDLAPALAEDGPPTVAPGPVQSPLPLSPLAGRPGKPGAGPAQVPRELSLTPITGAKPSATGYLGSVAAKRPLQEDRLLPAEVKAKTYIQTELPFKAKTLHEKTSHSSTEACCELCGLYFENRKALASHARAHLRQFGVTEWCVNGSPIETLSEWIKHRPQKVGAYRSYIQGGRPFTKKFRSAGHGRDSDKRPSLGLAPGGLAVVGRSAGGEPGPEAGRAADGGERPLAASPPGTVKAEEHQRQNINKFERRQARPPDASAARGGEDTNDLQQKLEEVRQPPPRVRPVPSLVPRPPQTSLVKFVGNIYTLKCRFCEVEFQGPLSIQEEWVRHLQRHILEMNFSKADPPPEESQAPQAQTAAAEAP
Sequence of HiBit-WIZ fusion protein (Q96SW2 whole entry, the tested form may be a part): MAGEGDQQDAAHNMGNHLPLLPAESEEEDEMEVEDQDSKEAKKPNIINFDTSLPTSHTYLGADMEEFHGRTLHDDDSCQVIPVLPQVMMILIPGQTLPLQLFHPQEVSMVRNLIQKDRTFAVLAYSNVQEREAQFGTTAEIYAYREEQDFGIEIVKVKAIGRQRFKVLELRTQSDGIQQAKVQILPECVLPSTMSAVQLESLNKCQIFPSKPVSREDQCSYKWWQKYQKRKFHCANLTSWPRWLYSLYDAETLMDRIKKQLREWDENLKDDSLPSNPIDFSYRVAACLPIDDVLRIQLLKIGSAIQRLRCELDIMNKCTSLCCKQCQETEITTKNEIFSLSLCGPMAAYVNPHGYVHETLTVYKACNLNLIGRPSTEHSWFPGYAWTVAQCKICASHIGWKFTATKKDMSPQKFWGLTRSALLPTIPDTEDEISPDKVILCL
Sequence of HiBit-WIZ fusion protein (Q16531 whole entry partner, the tested form may be a part): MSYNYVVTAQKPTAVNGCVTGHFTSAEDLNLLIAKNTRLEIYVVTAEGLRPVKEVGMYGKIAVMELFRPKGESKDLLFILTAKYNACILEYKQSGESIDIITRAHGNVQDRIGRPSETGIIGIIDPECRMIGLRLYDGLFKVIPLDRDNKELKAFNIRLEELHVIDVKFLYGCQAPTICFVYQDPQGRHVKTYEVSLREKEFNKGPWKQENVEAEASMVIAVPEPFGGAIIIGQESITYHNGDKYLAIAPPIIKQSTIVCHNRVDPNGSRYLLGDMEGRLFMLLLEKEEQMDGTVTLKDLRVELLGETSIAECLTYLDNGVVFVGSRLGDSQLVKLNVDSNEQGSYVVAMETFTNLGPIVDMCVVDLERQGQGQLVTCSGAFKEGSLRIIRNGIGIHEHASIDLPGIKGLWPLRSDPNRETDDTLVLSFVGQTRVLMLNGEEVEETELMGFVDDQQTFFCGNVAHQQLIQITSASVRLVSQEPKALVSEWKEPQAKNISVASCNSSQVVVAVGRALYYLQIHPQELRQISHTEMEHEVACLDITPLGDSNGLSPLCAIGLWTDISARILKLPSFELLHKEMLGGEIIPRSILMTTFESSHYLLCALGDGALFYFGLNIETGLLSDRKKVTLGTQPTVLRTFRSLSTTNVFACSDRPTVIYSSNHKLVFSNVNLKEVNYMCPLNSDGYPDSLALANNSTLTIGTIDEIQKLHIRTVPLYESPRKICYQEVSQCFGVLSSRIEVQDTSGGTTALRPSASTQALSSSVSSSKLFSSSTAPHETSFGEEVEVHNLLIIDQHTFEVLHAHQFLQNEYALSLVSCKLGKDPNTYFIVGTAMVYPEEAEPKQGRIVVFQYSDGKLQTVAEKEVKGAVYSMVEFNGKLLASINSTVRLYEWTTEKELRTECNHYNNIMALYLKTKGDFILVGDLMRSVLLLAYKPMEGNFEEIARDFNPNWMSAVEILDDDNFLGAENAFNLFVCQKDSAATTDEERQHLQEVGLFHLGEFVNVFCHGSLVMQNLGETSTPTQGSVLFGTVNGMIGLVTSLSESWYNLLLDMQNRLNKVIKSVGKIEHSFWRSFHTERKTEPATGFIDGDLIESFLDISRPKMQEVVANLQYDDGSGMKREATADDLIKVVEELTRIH

| Compound | Dmax [1] | remaining activity at up to 25 µM [2] | DC50 [3] | also measured |
| --- | --- | --- | --- | --- |
| COC(=O)c1nn(-c2cccc(C(F)(F)F)c2)cc1CN1CCCC[C@@H]1COc1ccc2c(c1)CN(C1CCC(=O)NC1=O)C2=O (stereo partly drawn) [Compound I-50dc] | 39.8% | 60.2% | > 25000 nM | – |
| O=C1CCC(N2Cc3cc(OC[C@@H]4CCCCN4Cc4cnn(Cc5ccccc5)c4)ccc3C2=O)C(=O)N1 (stereo partly drawn) [Compound I-50ck] | 83.2% | 16.8% | 766 nM | – |
| O=C1CCC(N2Cc3cc(OC[C@@H]4CCCCN4C(=O)CCCn4cnnc4)ccc3C2=O)C(=O)N1 (stereo partly drawn) [Compound I-72fv] | 1.1% | 98.9% | > 25000 nM | – |
| COC(=O)[C@@H]1CC[C@H](CN2CCCC[C@H]2COc2ccc3c(c2)CN(C2CCC(=O)NC2=O)C3=O)C1 (stereo partly drawn) [Compound I-50cz] | 49.8% | 50.2% | > 25000 nM | – |
| COc1cc(CN2CCCC[C@@H]2COc2ccc3c(c2)CN(C2CCC(=O)NC2=O)C3=O)ccc1C (stereo partly drawn) [Compound I-50eu] | 99.3% | 0.7% | 3 nM | – |
| NS(=O)(=O)c1ccc(CN2CCCC[C@@H]2COc2ccc3c(c2)CN(C2CCC(=O)NC2=O)C3=O)cc1 (stereo partly drawn) [Compound I-50ef] | – | – | – | Dmax (HEK-293T, read-out: % degradation of WIZ (100-Amax)): 85.2%; remaining activity (HEK-293T, read-out: WIZ Amax): 14.8%; DC50 (read-out: WIZ AC50; WIZ HiBit assay in 293T cells; 10-point, 5-fold dose response, highest concentration 25 μM, about 18 hours): 1460 nM |
| O=C1CCC(N2Cc3cc(OC[C@@H]4CCCCN4C(=O)CCc4c[nH]cn4)ccc3C2=O)C(=O)N1 (stereo partly drawn) [Compound I-72gk] | 6.5% | 93.5% | > 25000 nM | – |
| Cn1cncc1CN1CCCC[C@H]1COc1ccc2c(c1)CN(C1CCC(=O)NC1=O)C2=O (stereo partly drawn) [Compound I-50ag] | 62.8% | 37.2% | 15200 nM | – |
| N#Cc1cccc(Cn2cccc(CN3CCCC[C@@H]3COc3ccc4c(c3)CN(C3CCC(=O)NC3=O)C4=O)c2=O)c1 (stereo partly drawn) [Compound I-50cp] | 65.2% | 34.8% | 3530 nM | – |
| O=C1CCC(N2Cc3cc(OC[C@@H]4CCCCN4C(=O)c4ccc(-c5ccc(F)cc5)cn4)ccc3C2=O)C(=O)N1 (stereo partly drawn) [Compound I-72fj] | 63.7% | 36.3% | 3910 nM | – |
| Cc1nnc(-c2ccc(CN3CCCC[C@@H]3COc3ccc4c(c3)CN(C3CCC(=O)NC3=O)C4=O)cc2)o1 (stereo partly drawn) [Compound I-50dv] | 65% | 35% | 2990 nM | – |
| CCCc1cc(C(=O)N2CCCC[C@H]2COc2ccc3c(c2)CN(C2CCC(=O)NC2=O)C3=O)no1 (stereo partly drawn) [Compound I-72au] | 39.9% | 60.1% | > 25000 nM | – |
| O=C1CCC(N2Cc3cc(OC[C@H]4CCCCN4Cc4ccccc4OCCN4CCOCC4)ccc3C2=O)C(=O)N1 (stereo partly drawn) [Compound I-50ed] | 92.3% | 7.7% | 100 nM | – |
| Cc1cc(-n2c(C)cc(C(=O)N3CCCC[C@H]3COc3ccc4c(c3)CN(C3CCC(=O)NC3=O)C4=O)c2C)no1 (stereo partly drawn) [Compound I-72iu] | 71.7% | 28.3% | 2000 nM | – |
| O=C1CCC(N2Cc3cc(OC[C@@H]4CCCCN4C(=O)Cc4cc[nH]n4)ccc3C2=O)C(=O)N1 (stereo partly drawn) [Compound I-72af] | 7.7% | 92.3% | > 25000 nM | – |
| Cc1cc(CN2CCCC[C@@H]2COc2ccc3c(c2)CN(C2CCC(=O)NC2=O)C3=O)no1 (stereo partly drawn) [Compound I-50eq] | 88.4% | 11.6% | 272 nM | – |
| O=C1CCC(N2Cc3cc(OC[C@@H]4CCCCN4C(=O)c4ccccc4OC(F)(F)F)ccc3C2=O)C(=O)N1 (stereo partly drawn) [Compound I-72dv] | 13.3% | 86.7% | > 25000 nM | – |
| CCN1CCOc2cccc(CN3CCCC[C@@H]3COc3ccc4c(c3)CN(C3CCC(=O)NC3=O)C4=O)c21 (stereo partly drawn) [Compound I-179, 3-(5-(((R)-1-((4-ethyl-3,4-dihydro-2H-benzo[b][1,4]oxazin-5-yl)methyl)piperidin-2-yl)methoxy)-1-oxoisoindolin-2-yl)piperidine-2,6-dione] | – | – | 5.7 nM | Dmax (HEK-293T, read-out: % degradation of WIZ (100-Amax), 100 minus Amax; 293T cells): 73.9%; remaining activity (HEK-293T, read-out: WIZ Amax, DMSO-normalized, curve-fitted percentage of WIZ-HiBit remaining at 25 uM; 293T cells): 26.1% |

Now from value to compound, other results behind:

| Dmax [1] | remaining activity at up to 25 µM [2] | DC50 [3] | Compound | also measured |
| --- | --- | --- | --- | --- |
| 86.6% | 13.4% | 0.35 nM | O=C1CCC(N2Cc3cc(OC[C@H]4CCCCN4Cc4ccc(C5=CCOCC5)cc4)ccc3C2=O)C(=O)N1 (stereo partly drawn) [Compound I-188, 3-(5-(((R)-1-(4-(3,6-dihydro-2H-pyran-4-yl)benzyl)piperidin-2-yl)methoxy)-1-oxoisoindolin-2-yl)piperidine-2,6-dione] | – |
| 41.1% | 58.9% | > 25000 nM | O=C1CCC(N2Cc3cc(OC[C@@H]4CCCCN4Cc4cocn4)ccc3C2=O)C(=O)N1 (stereo partly drawn) [Compound I-50e] | – |
| 85.2% | 14.8% | 269 nM | Cn1ccc2c(CN3CCCC[C@H]3COc3ccc4c(c3)CN(C3CCC(=O)NC3=O)C4=O)cccc21 (stereo partly drawn) [Compound I-50t] | – |
| 78.2% | 21.8% | 962 nM | CCc1noc(CC)c1C(=O)N1CCCC[C@H]1COc1ccc2c(c1)CN(C1CCC(=O)NC1=O)C2=O (stereo partly drawn) [Compound I-72s] | – |
| 71.6% | 28.4% | 1080 nM | O=C1CCC(N2Cc3cc(OC[C@H]4CCCCN4Cc4c(F)cccc4F)ccc3C2=O)C(=O)N1 (stereo partly drawn) [Compound I-147] | – |
| 51.8% | 48.2% | 56 nM | O=C1CCC(N2Cc3cc(OC[C@H]4CCCCN4Cc4ccc(C5CCN(CC6CCOCC6)CC5)cc4)ccc3C2=O)C(=O)N1 (stereo partly drawn) [Compound I-197, 3-(1-oxo-5-(((R)-1-(4-(1-((tetrahydro-2H-pyran-4-yl)methyl)piperidin-4-yl)benzyl)piperidin-2-yl)methoxy)isoindolin-2-yl)piperidine-2,6-dione] | – |
| 90.7% | 9.3% | 11 nM | O=C1CCC(N2Cc3cc(OC[C@H]4CCCCN4Cc4cccc5c4NCC5)ccc3C2=O)C(=O)N1 (stereo partly drawn) [Compound I-111, 3-(5-(((R)-1-(indolin-7-ylmethyl)piperidin-2-yl)methoxy)-1-oxoisoindolin-2-yl)piperidine-2,6-dione] | – |
| 97.3% | 2.68% | 19 nM | Cc1nc(C)c(CN2CCCC[C@@H]2COc2ccc3c(c2)CN(C2CCC(=O)NC2=O)C3=O)s1 (stereo partly drawn) [Compound I-145] | – |
| 4.5% | 95.5% | > 25000 nM | O=C1CCC(N2Cc3cc(OC[C@@H]4CCCCN4Cc4ccccc4Cn4cncn4)ccc3C2=O)C(=O)N1 (stereo partly drawn) [Compound I-50q] | – |
| 99.5% | 0.48% | 8.6 nM | CC(C)(C)OC(=O)N1CCc2cccc(CN3CCCC[C@@H]3COc3ccc4c(c3)CN(C3CCC(=O)NC3=O)C4=O)c21 (stereo partly drawn) [Compound I-110, Tert-butyl 7-(((2R)-2-(((2-(2,6-dioxopiperidin-3-yl)-1-oxoisoindolin-5-yl)oxy)methyl)piperidin-1-yl)methyl)indoline-1-carboxylate] | – |
| 97.4% | 2.56% | 10 nM | O=C1CCC(N2Cc3cc(OC[C@H]4CCCCN4Cc4ccccc4N4CCCCC4)ccc3C2=O)C(=O)N1 (stereo partly drawn) [Compound I-119] | – |
| 68% | 32% | 13 nM | O=C1CCC(N2Cc3cc(OC[C@H]4CCCCN4Cc4ccc(C5CCN(CCF)CC5)cc4)ccc3C2=O)C(=O)N1 (stereo partly drawn) [Compound I-198, 3-(5-(((R)-1-(4-(1-(2-fluoroethyl)piperidin-4-yl)benzyl)piperidin-2-yl)methoxy)-1-oxoisoindolin-2-yl)piperidine-2,6-dione] | – |
| 85.4% | 14.6% | 380 nM | CO[C@H]1C[C@@H](CN2CCCC[C@@H]2COc2ccc3c(c2)CN(C2CCC(=O)NC2=O)C3=O)C1 (stereo partly drawn) [Compound I-118, 3-(5-(((R)-1-(((1s,3S)-3-methoxycyclobutyl)methyl)piperidin-2-yl)methoxy)-1-oxoisoindolin-2-yl)piperidine-2,6-dione] | – |
| 96% | 3.95% | 72 nM | O=C1CCC(N2Cc3cc(OC[C@H]4CCCCN4Cc4ccccc4N4CCOCC4)ccc3C2=O)C(=O)N1 (stereo partly drawn) [Compound I-101] | – |
| 0.9% | 99.1% | > 25000 nM | O=C1CCC(N2Cc3cc(OC[C@@H]4CCCCN4C(=O)[C@@H]4CCCCN4C4CC4)ccc3C2=O)C(=O)N1 (stereo partly drawn) [Compound I-72f] | – |
| 67.2% | 32.9% | 150 nM | CCN1CCN(c2ccc(CN3CCCC[C@@H]3COc3ccc4c(c3)CN(C3CCC(=O)NC3=O)C4=O)cn2)CC1 (stereo partly drawn) [Compound I-191, 3-(5-(((R)-1-((6-(4-ethylpiperazin-1-yl)pyridin-3-yl)methyl)piperidin-2-yl)methoxy)-1-oxoisoindolin-2-yl)piperidine-2,6-dione] | – |
| – | – | > 25000 nM | CCN1CCCC(C)(C)C1COc1ccc2c(c1)CN(C1CCC(=O)NC1=O)C2=O (single isomer, unassigned) [Compound I-19, 3-(5-((1-ethyl-3,3-dimethylpiperidin-2-yl)methoxy)-1-oxoisoindolin-2-yl)piperidine-2,6-dione] | % degradation of WIZ (100-Amax) (100 minus Amax, at 25 uM; 293T cells): 34.7%; WIZ Amax (DMSO-normalized, curve-fitted percentage of WIZ-HiBit remaining at 25 uM; 293T cells): 65.3% |
| 82.8% | 17.1% | 72 nM | CCN1[C@@H]2CC[C@@H](C2)[C@H]1COc1ccc2c(c1)CN(C1CCC(=O)NC1=O)C2=O (stereo partly drawn) [Compound I-223, 3-(5-(((1R,3S,4S)-2-ethyl-2-azabicyclo[2.2.1]heptan-3-yl)methoxy)-1-oxoisoindolin-2-yl)piperidine-2,6-dione] | – |
